Measured values as given in paper PMC6926962, “Pentafluorophenyl Platinum(II) Complexes of PTA and Its N-Allyl and N-Benzyl Derivatives: Synthesis, Characterization and Biological Activity” (Materials, 2019).
Where two headings read alike, the source gives them in different places.

Experiments:
[1] = system: NHDF (normal human dermal fibroblasts); assay: MTT cell viability assay, NHDF; assay type: cell-based; details: 72 h incubation, read-out: Half maximal inhibitory concentration (IC50)
Description: (§1) NHDF (normal human dermal fibroblasts; PromoCell, C-12302), A549 (human lung carcinoma; ATCC, No CCL-185 ^TM), HeLa (human cervix carcinoma; ATCC, No CCL-2 ^TM) and MCF7 (human breast adenocarcinoma; ATCC, No HTB-22 ^TM) were used. NHDF, A549, HeLa and MCF7 cell lines were cultured in DMEM (Lonza, Basel, Switzerland). Media were supplemented with 10% FBS (Biological Industries, Kibbutz Beit-Haemek, Israel), 4 mM L-glutamine (Biological Industries, Kibbutz Beit-Haemek, Israel), 100 U/mL of penicillin and 100 µg/mL of streptomycin (Sigma, Steinheim, North Rhine-Westphalia, Germany).
(§2) All cell cultures were inserted in a 96-well plate (Eppendorf, Freie und Hansestadt Hamburg, Germany) in a concentration of 10^5 cells per well.
(§3) Compounds 2a–c and ligands 1a–c were dissolved in distilled water and diluted to afford concentrations of 30, 3, 0.3 and 0.03 μg/mL in DMEM and incubated in standard conditions for 72 h, after which the MTT (Sigma, Steinheim, North Rhine-Westphalia, Germany) assay was carried out. 20 µL of MTT (5 mg/mL) was added to each well, incubation for 4 h at 37 °C was implemented, and then 80 µL of lysis buffer was added. The test consists in the enzymatic reduction of the tetrazolium salt MTT in metabolically active cells. The metabolite, purple-colored formazan is measured colorimetrically, using a multiwell plate reader. The optical density (OD) was measured using a spectrophotometric microplate reader (Multiscan Go, Thermo Fisher, Waltham, MA, USA) at 570 nm with reference wavelength of 630 nm. The viability of the investigated cell cultures was estimated using following formula: viability% = (average OD for test group/average OD for control group) × 100. The untreated cells were used as a control group.

[2] = system: A549 (human lung carcinoma); assay: MTT cell viability assay, A549; assay type: cell-based; details: A549, 72 h incubation, read-out: Half maximal inhibitory concentration (IC50)
Description: as §1, §2, §3

[3] = system: HeLa (human cervix carcinoma); assay: MTT cell viability assay, HeLa; assay type: cell-based; details: 72 h incubation, read-out: Half maximal inhibitory concentration (IC50)
Description: as §1, §2, §3

[4] = system: MCF7 (human breast adenocarcinoma); assay: MTT cell viability assay, MCF7; assay type: cell-based; details: MCF7, 72 h incubation, read-out: Half maximal inhibitory concentration (IC50)
Description: as §1, §2, §3

[5] = system: NHDF (normal human dermal fibroblasts); parameters: method as in PMID 31237306; details: nd = not detectable, read-out: Half maximal inhibitory concentration (IC50); cited from earlier work
[6] = system: A549 (human lung carcinoma); parameters: method as in PMID 31237306; details: nd = not detectable, read-out: Half maximal inhibitory concentration (IC50); cited from earlier work
[7] = system: HeLa (human cervix carcinoma); parameters: method as in PMID 31237306; details: nd = not detectable, read-out: Half maximal inhibitory concentration (IC50); cited from earlier work
[8] = system: MCF7 (human breast adenocarcinoma); parameters: method as in PMID 31237306; details: nd = not detectable, read-out: Half maximal inhibitory concentration (IC50); cited from earlier work
[9] = target: T1, human serum albumin (HSA) (Homo sapiens, UniProt P02768); details: under the same conditions; cited from earlier work
T1 construct: High purity free-HSA (>96%, Sigma-Aldrich, Steinheim, North Rhine-Westphalia, Germany) was used as purchased; purchased Sigma-Aldrich

[10] = Octanol-water partition coefficient determination; assay type: physicochemical; details: 24 °C, 10^−3 M in water saturated with octanol
Description: The log(P) values corresponding to the octanol–water partition coefficient was adjusted to the solubility properties of the compounds [84]. Complexes were dissolved in water previously saturated with octanol, to achieve concentrations of 10^−3 M. At 24 °C, 25 mL of octanol saturated with water was introduced into a 100 mL flask equipped and then 25 mL of the aqueous complex solutions was added. The two-phase mixture thus obtained was stirred vigorously for 20 min. After separation of the phases and removal of the respective solvents under vacuum, the attained residues were weighed. Values for log(P) of −0.11, −0.71 and −0.40 for 2a, 2b and 2c, respectively, were obtained.

[11] = Solubility in water; assay type: physicochemical; details: 25 °C
[12] = target: T1, human serum albumin (HSA); assay: HSA interaction, fluorescence quenching (Trp-214); assay type: binding; details: for KSV (Stern-Volmer constant): HSA 10 μM, pH 7.40; for ΔH^0 / ΔS^0: van't Hoff; for maximum blue shift of HSA fluorescence emission: HSA emission max 335 nm, λex 295 nm
Description: (§4) High purity free-HSA (>96%, Sigma-Aldrich, Steinheim, North Rhine-Westphalia, Germany) was used as purchased. The stock solutions of platinum complexes (200 μM) were freshly prepared in double distilled water prior to their use. The HSA solutions (200 μM) were prepared in PBS (pH 7.40). In the final step, the samples contained (protein):(drug) equal 1:0–1:9 in PBS, where CHSA was 10 μM. Measurements were done after 24 h incubation at 300, 305 and 310 K. HSA concentration was determined, using A279 (1 mg/mL) as 0.531 [85].
Emission fluorescence spectra were recorded using Hitachi F-2700 spectrofluorimeter (Tokio, Japan) in 1.0 cm quartz cells in the 300–400 nm range. Trp-214 fluorescence of HSA was measured at 295 nm. The intensity at 335 nm (Trp-214) was used to achieve the quenching mechanism and calculate the binding constants and thermodynamic parameters according to literature reports.

[13] = target: T1, human serum albumin (HSA); assay: HSA interaction, circular dichroism; assay type: binding; details: HSA/complex molar ratio 1/10; free HSA 50.88%
Description: as §4, with “In the final step, the samples contained (protein):(drug) equal 1:0–1:9 in PBS, where CHSA was 10 μM.” left out
Circular dichroism spectra were recorded on a Jasco J-715 spectropolarimeter, over the range of 190–250 nm in 0.1 cm cuvettes. The α-helical content of HSA was calculated from the molar ellipticity (θ) at 208–210 nm using Equations (1) and (2): (1) MRE209=ObservedCD (mdeg)/Cp·n·l·10, (2) α−helix (%)=MRE209−4000/33000−4000×100, where MRE is the mean residue ellipticity, Cp is the molar concentration of the protein, n is the number of amino acid residues (583) and l is the path-length (0.1 cm).

T1 sequence (P02768 25-609): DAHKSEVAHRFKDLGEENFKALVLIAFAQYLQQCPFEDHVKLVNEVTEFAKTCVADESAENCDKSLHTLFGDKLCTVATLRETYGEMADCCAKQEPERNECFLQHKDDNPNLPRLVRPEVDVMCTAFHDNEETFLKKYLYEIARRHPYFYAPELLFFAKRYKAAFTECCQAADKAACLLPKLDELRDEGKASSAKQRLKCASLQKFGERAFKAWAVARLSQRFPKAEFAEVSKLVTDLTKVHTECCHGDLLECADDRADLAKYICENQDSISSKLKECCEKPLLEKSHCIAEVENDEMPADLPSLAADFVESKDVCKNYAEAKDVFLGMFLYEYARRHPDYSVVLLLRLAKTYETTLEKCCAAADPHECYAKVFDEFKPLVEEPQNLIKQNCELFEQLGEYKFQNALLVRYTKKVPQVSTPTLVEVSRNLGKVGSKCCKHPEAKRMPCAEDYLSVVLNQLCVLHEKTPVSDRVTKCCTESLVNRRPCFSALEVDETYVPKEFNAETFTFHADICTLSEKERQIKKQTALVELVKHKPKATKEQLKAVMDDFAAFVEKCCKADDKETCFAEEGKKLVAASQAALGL

Row | Compound | IC50 ([1]; Homo sapiens) | IC50 ([2]; Homo sapiens) | IC50 ([3]; Homo sapiens) | IC50 ([4]; Homo sapiens) | IC50 [1] | IC50 [2] | IC50 [3] | IC50 [4] | log(P) octanol-water partition coefficient [10] | solubility in H2O (S25 °C) [11] | KA (association constant) ([12]; 300 K) | Kq (quenching rate constant) ([12]; 300 K) | n (number of binding sites) ([12]; 300 K) | ΔG^0 ([12]; 300 K) | KSV (Stern-Volmer constant) ([12]; 300 K) | ΔH^0 ([12]; 300 K) | ΔS^0 ([12]; 300 K) | KA (association constant) ([12]; 305 K) | Kq (quenching rate constant) ([12]; 305 K) | n (number of binding sites) ([12]; 305 K) | also measured
1 | C=CC[N+]12CN3CN(CP(C3)C1)C2 [Compound 1b, 1-allyl-1-azonia-3,5-diaza-7-phosphaadamantane] | > 263 µM | > 263 µM | 65.8 ± 6.6 µM | > 263 µM | – | – | – | – | – | – | – | – | – | – | – | – | – | – | – | – | –
2 | c1ccc(C[N+]23CN4CN(CP(C4)C2)C3)cc1 [Compound 1c, 1-benzyl-1-azonia-3,5-diaza-7-phosphaadamantane] | > 224 µM | > 224 µM | 56 ± 16 µM | 72.4 ± 2.4 µM | – | – | – | – | – | – | – | – | – | – | – | – | – | – | – | – | –
3 | N.N.[Cl][Pt][Cl] [Cisplatin, cisplatin] | – | – | – | – | – | – | – | – | – | – | – | – | – | – | – | – | – | – | – | – | IC50 [5]: 16.6 ± 2.1 µM; IC50 [6]: 33.3 ± 4.2 µM; IC50 [7]: 16.6 ± 3.1 µM; IC50 [8]: 33.3 ± 4.2 µM; binding constant Ka for cisplatin-HSA complex [9]: 852 M⁻¹
4 | C=CC[N+]12CN3CN(C1)C[PH]([Pt]([Cl])([c]1c(F)c(F)c(F)c(F)c1F)[PH]14CN5CN(C[N+](CC=C)(C5)C1)C4)(C3)C2.F[B-](F)(F)F.F[B-](F)(F)F [Compound 2b, trans-(PtCl(C6F5)(APTA)2)(BF4)2] | – | – | – | – | 26.9 ± 3.5 µM | 7.79 ± 1.7 µM | 29.5 ± 1.3 µM | > 31 µM | −0.71 | ≈ 4.0 mg mL^−1 | 9880 M⁻¹ | 1.77e+12 M⁻¹ s⁻¹ | 1.26 | -5.43 kcal/mol | 8850 M⁻¹ | 4.02 kcal/mol | 131.4 J mol^−1·K^−1 | 9900 M⁻¹ | 1.96e+12 M⁻¹ s⁻¹ | 0.96 | ΔG^0 ([12]; 305 K): -5.57 kcal/mol; KSV (Stern-Volmer constant) ([12]; 305 K): 9780 M⁻¹; ΔH^0 ([12]; 305 K): 4.02 kcal/mol; ΔS^0 ([12]; 305 K): 131.4 J mol^−1·K^−1; KA (association constant) ([12]; 310 K): 11000 M⁻¹; Kq (quenching rate constant) ([12]; 310 K): 2.08e+12 M⁻¹ s⁻¹; n (number of binding sites) ([12]; 310 K): 1.24; KSV (Stern-Volmer constant) ([12]; 310 K): 10400 M⁻¹; maximum blue shift of HSA fluorescence emission [12]: ca. 3 nm; content of α-helix of HSA [13]: 46.29%
5 | F[B-](F)(F)F.F[B-](F)(F)F.Fc1c(F)c(F)[c]([Pt-3]([Cl])([P+]23CN4CN(C[N+](Cc5ccccc5)(C4)C2)C3)[P+]23CN4CN(C[N+](Cc5ccccc5)(C4)C2)C3)c(F)c1F [Compound 2c, trans-(PtCl(C6F5)(BzPTA)2)(BF4)2] | – | – | – | – | 11.2 ± 3.1 µM | > 28.1 µM | 8.89 ± 4.1 µM | > 28.1 µM | −0.40 | ≈ 3.0 mg mL^−1 | 14500 M⁻¹ | 2.72e+12 M⁻¹ s⁻¹ | 1.25 | -5.71 kcal/mol | 13600 M⁻¹ | 1.71 kcal/mol | 103.5 J mol^−1·K^−1 | 15200 M⁻¹ | 2.96e+12 M⁻¹ s⁻¹ | 0.99 | ΔG^0 ([12]; 305 K): -5.83 kcal/mol; KSV (Stern-Volmer constant) ([12]; 305 K): 14800 M⁻¹; ΔH^0 ([12]; 305 K): 1.71 kcal/mol; ΔS^0 ([12]; 305 K): 103.5 J mol^−1·K^−1; KA (association constant) ([12]; 310 K): 15900 M⁻¹; Kq (quenching rate constant) ([12]; 310 K): 3.24e+12 M⁻¹ s⁻¹; n (number of binding sites) ([12]; 310 K): 1.59; KSV (Stern-Volmer constant) ([12]; 310 K): 16200 M⁻¹; maximum blue shift of HSA fluorescence emission [12]: ~5 nm; content of α-helix of HSA [13]: 47.17%
6 | trans-(PtCl(C6F5)(PTA)2) [Compound 2a] | – | – | – | – | 26.1 ± 0.68 µM | 15.4 ± 5.3 µM | > 42.1 µM | > 42.1 µM | −0.11 | ≈ 0.35 mg mL^−1 | – | – | – | – | – | – | – | – | – | – | –
